What was measured:
[1] = test system: spontaneous growth in the right lateral mammary region (adenocarcinoma of the mammary gland); experiment: Spontaneous mammary tumor in a female rat, subcutaneous treatment; type: in vivo
Protocol: A female rat that had developed a spontaneous growth in the right lateral mammary region was given b.i.d. 10 μg. of the compound of formula I (R'= isobutyl; R = ethyl). […] On day 9, a biopsy was performed and the tumor was identified as adenocarcinoma of the mammary gland. Treatment was stopped after 20 days and the animal was observed periodically. Tumor growth reappeared in the same area with rapid growth observed on day 65 (counted from original treatment beginning). […] Treatment with the above regimen was started again. The tumor regressed again and on day 93, its diameter was 1.2 cm. and its depth was 0.4 cm. […] However, the tumor remained dormant until day 147 (54 days following the last treatment), when significant growing resumed.

[2] = test system: tumors induced by 7,12-dimethylbenzanthracene (DMBA); experiment: DMBA-induced tumors in female rats, subcutaneous treatment; type: in vivo, rat
Protocol: In a group of 3 female, 50-day old rats, tumors were induced by intragastric feeding of 20 mg of 7,12-dimethylbenzanthracene (DMBA) in 2 ml. of sesame oil. The animals developed tumors within 10-12 weeks. All animals were maintained on normal rations for 100 days following the DMBA administration, at which time treatment with the compound of formula I (R = ethyl; R' = isobutyl) was started at a b.i.d. regimen Monday through Friday with a single dose on Saturday, the compound being subcutaneously administered as a 0.2% (wt/vol.) solution in isotonic saline.
The first animal carrying 4 tumors of volumes of 5.5, 3, 1 and 1 cc. respectively, was given the above regimen with 10 μg per dose.
In the second animal carrying 3 tumors, each dose contained only 5 μg of the drug.
The third animal had developed 5 tumors, measuring 6.5, 3.5, 1.5, 0.5 and 0.5 cc. respectively. After treatment with 2.5 μg. per dose of the test drug, these tumors were reduced to 1.5, 3.0, 0.5, 0.2 and >0.0 cc. in that sequence.

[3] = day 66, regrowth after treatment was stopped on day 20, before second treatment

CCNC(=O)[C@@H]1CCCN1C(=O)[C@H](CCCNC(=N)N)NC(=O)[C@H](CC(C)C)NC(=O)[C@@H](CC(C)C)NC(=O)[C@H](Cc1ccc(O)cc1)NC(=O)[C@H](CO)NC(=O)[C@H](Cc1c[nH]c2ccccc12)NC(=O)[C@H](Cc1c[nH]cn1)NC(=O)[C@@H]1CCC(=O)N1
day until which the tumor remained dormant before significant growing resumed ([1]; counted from original treatment beginning, 54 days following the last treatment): 147 days | tumor diameter ([1]; day 5 of treatment, 10 μg b.i.d. subcutaneous, diameter before treatment 3 cm): 2 cm | tumor diameter ([1]; day 9 of treatment, 10 μg b.i.d. subcutaneous, diameter before treatment 3 cm): 0.5 cm | tumor diameter ([1]; day 20 of treatment, 10 μg b.i.d. subcutaneous, diameter before treatment 3 cm): undetectable size | tumor depth [1, 3]: 2 cm | tumor diameter [1, 3]: 4 cm | tumor depth ([1]; day 93, second treatment started day 66 (depth then 2 cm), 10 μg b.i.d. subcutaneous): 0.4 cm | tumor diameter ([1]; day 93, second treatment started day 66 (diameter then 4 cm), 10 μg b.i.d. subcutaneous): 1.2 cm | tumor volume ([2]; first animal, 4 tumors of 5.5, 3, 1 and 1 cc, 10 μg per dose, after 2 weeks, the other two tumors): immeasurable volumes | tumor volume ([2]; first animal, 4 tumors of 5.5, 3, 1 and 1 cc, 10 μg per dose, after 2 weeks, two of the tumors): 1 cc | effect on tumor ([2]; second animal, 3 tumors, 5 μg per dose, one tumor): seemingly unaffected | tumor volume ([2]; second animal, 5 μg per dose, tumor of 3 cc before treatment): 11/4 | tumor volume ([2]; second animal, 5 μg per dose, tumor of 4 cc before treatment): 2 cc | tumor volume ([2]; third animal, 2.5 μg per dose, first tumor of 0.5 cc before treatment): 0.2 cc | tumor volume ([2]; third animal, 2.5 μg per dose, second tumor of 0.5 cc before treatment): > 0.0 cc | tumor volume ([2]; third animal, 2.5 μg per dose, tumor of 1.5 cc before treatment): 0.5 cc | tumor volume ([2]; third animal, 2.5 μg per dose, tumor of 3.5 cc before treatment): 3.0 cc | tumor volume ([2]; third animal, 2.5 μg per dose, tumor of 6.5 cc before treatment): 1.5 cc
